Source: patent US10098909B2 (UNIVERSITY OF SOUTH FLORIDA, priority 2016, dated 2018)

Experiments:
[1] = tested on: Wild-type mouse neuroblastoma (N2a) cells; test: Neuronal cell differentiation in N2a cells (β-tubulin III, phospho-synapsin I; immunofluorescence and WB); format: cell-based; conditions: 10 mM, 24 h
Experimental: These cells were then permeabilized with 0.05% Triton X-100 for 5 min, washed, and incubated with mouse anti-β-tubulin III monoclonal antibody ([…]™), and rabbit anti-phospho-synapsin I (Ser^62, Ser^67) polyclonal antibody (EMD Millipore) overnight at 4° C. Alexa Fluor® 488 Goat anti-mouse IgG (green) and Alexa Fluor® 594 Donkey anti-rabbit IgG (red, Life Technologies) were used to detect β-tubulin III and phospho-synapsin I signals respectively. Confocal images were taken by Olympus Fluoview™ FV1000 laser scanning confocal microscope (Tokyo, Japan).

[2] = tested on: Human neural stem cells (H9-Derived); test: Human neural stem cell differentiation (MAP2, GFAP; immunofluorescence and WB); format: cell-based; conditions: 10 mM, 14 days
Experimental: These cells were then permeabilized, washed, incubated with mouse anti-MAP2 monoclonal antibody or rabbit anti-GFAP polyclonal antibody overnight at 4° C., stained with Alexa Fluor® 488 (green) and Alexa Fluor® 594 (red), and visualized by confocal microscopy. DAPI (blue) was used to detect nuclear DNA.

[3] = In vivo plasma and brain lithium pharmacokinetics after oral gavage (AAS); design: species or system Sprague-Dawley rats; conditions: for time of plasma lithium peak: sampled at 2, 24, 48, 72 h; for plasma and brain lithium level profile after oral dosing: summary of FIG. 2, up to 48 h
[4] = tested on: GSK3β; test: GSK3β phosphorylation in Fmr1 KO mouse embryonic fibroblasts (WB); format: cell-based; conditions: 60 min
Experimental: FIGS. 5A-5B. […] Many neurodegenerative disorders, including FXS, have been associated with enhanced GSK activity (14-16). Fmr1 KO mouse embryonic fibroblasts (Fmr1 KO MEF) have elevated levels of stimulatory GSK3β ([…]) phosphorylation compared to wild-type MEF (both cell lines kindly provided by Dr. David Nelson, Baylor College of Medicine). […] Cell lysates were then prepared and subjected to WB analysis using specific phospho-GSK3β (pGSK3β)^Tyr216, pGSK3β^Ser9 and total GSK antibodies.

[5] = tested on: GSK3α; test: GSK3α Tyr279 phosphorylation in brain homogenates of Fmr1 KO mice (WB); format: in vivo, mouse; conditions: 28 mg/kg/day i.p., 5 days
Experimental: (§1) (6A) Mouse brain homogenates were then prepared from cerebral cortex and hippocampus and analyzed by WB with specific pGSK3α^Tyr279, pGSK3β^Tyr216 and total GSK antibodies.

[6] = tested on: GSK3β; test: GSK3β Tyr216 phosphorylation in brain homogenates of Fmr1 KO mice (WB); format: in vivo, mouse; conditions: 28 mg/kg/day i.p., 5 days
Experimental: as §1

[7] = tested on: Fmr1 KO mice; conditions: dfmr1 mutant Drosophila and Fmr1 KO mice; cited from earlier work
[8] = tested on: Fmr1 KO mice; conditions: cited from earlier work
[9] = male rats, 4 mEq/kg lithium, oral gavage

## O=C(O)[C@@H]1CCCN1 [1-proline, L-proline]
[1]
  neuronal cell differentiation (β-tubulin III and phospho-synapsin I immunofluorescence and WB) vs PBS: no significant difference
[2]
  GFAP expression (gliogenesis; immunofluorescence and WB, GFAP to β-actin) vs PBS: no significance difference
  MAP2 expression (immunofluorescence and WB, MAP2 to β-actin) vs PBS: no significance difference

## O=C(O)[C@@H]1CCCN1.O=C([O-])c1ccccc1O.[Li+] [LISPRO]
[3]; male rats, 4 mEq/kg lithium, oral gavage, 2 h
  plasma lithium level at 2 h: elevated
[3]; [9]
  plasma lithium level at 48 h: remained elevated
  time of plasma lithium peak: 24 h
[3]; male rats, 4 mEq/kg lithium, oral gavage, 72 h
  plasma lithium level at 72 h: almost undetectable
[3]; male rats, 4 mEq/kg lithium, oral gavage, brain, 24 and 48 h
  brain lithium levels at 24 and 48 h: steady brain levels
[3]
  plasma and brain lithium level profile after oral dosing: nearly steady levels of lithium in plasma and brain for up to 48 h without the initial spike
[4]; Fmr1 KO MEF, 40 μM
  stimulatory pGSK3β Tyr216 level: decreased
[4]; Fmr1 KO MEF, 10, 20 or 40 μM
  total GSK3β level: unchanged
[4]; Fmr1 KO MEF, starting at 10 μM
  inhibitory pGSK3β Ser9 level: increased
[5]
  pGSK3α Tyr279 level in cerebral cortex and hippocampus: reduced these levels
[6]
  pGSK3β Tyr216 level in cerebral cortex and hippocampus: reduced these levels

## O=C([O-])[O-].[Li+].[Li+] [Li2CO3, lithium carbonate]
[3]; [9]
  plasma lithium level at 48 h: nearly undetectable
  time of plasma lithium peak: 24 h
[3]; male rats, 4 mEq/kg lithium, oral gavage, brain, 24 h
  brain lithium level at 24 h: concomitant spike
[3]
  plasma and brain lithium level profile after oral dosing: spike in plasma and brain lithium levels at 24 h with considerably lower or undetectable levels at 48 h
[1]
  neuronal cell differentiation (β-tubulin III and phospho-synapsin I immunofluorescence and WB) vs PBS: no significant difference
[2]
  GFAP expression (gliogenesis; immunofluorescence and WB, GFAP to β-actin) vs PBS: no significance difference
  MAP2 expression (immunofluorescence and WB, MAP2 to β-actin) vs PBS: no significance difference

## [Cl-].[Li+] [LiCl]
[1]
  neuronal cell differentiation (β-tubulin III and phospho-synapsin I immunofluorescence and WB) vs PBS: no significant difference
[2]
  GFAP expression (gliogenesis; immunofluorescence and WB, GFAP to β-actin) vs PBS: no significance difference
  MAP2 expression (immunofluorescence and WB, MAP2 to β-actin) vs PBS: no significance difference

## Cn1cc(C2=C(c3ccc(Cl)cc3Cl)C(=O)NC2=O)c2ccccc21 [SB-216763]
[7]
  FXS behavioral phenotypes (hyperactivity, social and cognitive impairment): reverse these behavioral deficits

## Cn1sc(=O)n(Cc2ccccc2)c1=O [TDZD-8]
[7]
  FXS behavioral phenotypes (hyperactivity, social and cognitive impairment): reverse these behavioral deficits

B1: BDNF: brain derived neurotrophic factor, a potent modulator of learning and memory, synaptic plasticity and neurogenesis (protein, UniProt P23560 19-247, looked up)
Neurotrophic factor BDNF …: APMKEANIRGQGGLAYPGVRTHGTLESVNGPKAGSRGLTSLADTFEHVIEELLDEDQKVRPNEENNKDADLYTSRVMLSSQVPLEPPLLFLLEEYKNYLDAANMSMRVRRHSDPARRGELSVCDSISEWVTAADKKTAVDMSGGTVTVLEKVPVSKGQLKQYFYETKCNPMGYTKEGCRGIDKRHWNSQCRTTQSYVRALTMDSKKRIGWRFIRIDTSCVCTLTIKRGR
[8]
  impairment in hippocampal long term potentiation: fully restored
